Entries after “also recorded” stand apart in the source; their conditions may differ. Where two headings read alike, the source gives them in different places.
Columns and labels:
[1] = Distribution of sGC stimulators in tissues, rats (liver and plasma by LC-MS/MS); assay type: in vivo; conditions: Wistar, rat, 2 h post fifth dose, male rats, read-out: total Liver:Plasma ratio
Method: The purpose of this experiment was to determine compound concentrations in the plasma and tissues of animals dosed with sGC stimulators for 5 days Q.D.
In a first experiment, the sGC stimulator Compound B (described previously in Example 2) was dosed for 5 Days Q.D. to male Wister rats. Rats were divided into four study groups and dosed according to the below table:
The animals were dosed daily for five consecutive days according the table above. On each day of dosing, frozen aliquots of each dosing solution were thawed and the animals were weighed and dosed accordingly. On day 5, two hours post the fifth dose, blood was collected by orbital bleed. Blood samples were collected in EDTA tubes pre-loaded with 5 μL of 100 mM IBMX Plasma was be separated by centrifugation for 10 minutes at 4° C. and then stored at −80° C.
A Ketamine/Xylazine/pbs solution as a 5:1:4 ratio was administered I.P. at 1 ul per gram. Once the rat was fully anesthetized (as determined by checking its reflexes) and while the heart was still beating, a needle was inserted into the left ventricle. Approximately 20 mls of PBS/IBMX/heparin solution were then perfused. The right atrium was snipped, and perfusion continued for approximately 10 additional mls (30 mls total). At this point, the femoral artery was snipped and perfusion was continued until there was no longer blood (only clear fluid) collecting in the abdominal cavity. Several tissues, including liver, were isolated and weighed followed by snap freezing.
A second separate and similar experiment was carried out with Compound C. The structure of Compound C is depicted below. The preparation and characterization of this compound was described in patent application publication WO2014144100, published 18 Sep. 2014.
For this second experiment, rats were divided into four study groups and dosed according to the below table:
Samples were analyzed using liquid chromatography (LC) with tandem mass spectrometric detection (MS/MS) using positive electrospray ionization. The standard curve range was from 0.1 to 400 ng/mL. […]
In order to prepare the tissues for measurement, the naïve livers and the livers isolated after treatment were removed from the −80° C. freezer and placed on liquid nitrogen. The liver weight was recorded and then the tissue placed in a Geno grinding vial containing two 7/16″ steel beads. […] Approximately 200 mg of tissue from each sample was weighed and recorded. […] The samples were analyzed by LC-MS/MS.
Total liver and plasma concentrations were measured and liver concentrations were corrected for total liver weight. Liver: Plasma ratios were determined by dividing liver compound concentration by the plasma compound concentration. […]

[2] = tested on: alpha-SMA (alpha-smooth muscle actin) mRNA expression; assay: CCl4-induced changes in liver fibrosis marker in C57BL/6 mice; assay type: in vivo
Method: A pilot study using male C57BL/6 mice was carried out to explore the changes in liver fibrosis biomarker after one single injection of carbon tetrachloride (CCl4) given by intraperitoneal (IP) administration and the effect of several substances, including an sGC stimulator, in this model. Injection of CCl4 in mice results in elevation of alpha-SMA (alpha-smooth muscle actin) mRNA expression and this can be used as a biomarker of fibrosis in the liver. A reduction in the expression levels of this biomarker and reversal towards the normal levels, upon administration of an sGC stimulator, can be used to assess the potential utility of the compound in the treatment of liver fibrosis.
Mice used were 8 weeks old at receipt, healthy, and unused in other experimental procedures. Housing and care were as specified in the USDA Animal Welfare Act (9 CFR, Parts 1, and 3) and as described in the Guide for the Care and Use of Laboratory Animals from the National Research Council. Environmental conditions in housing rooms were set at the following ranges for acclimation and naive groups: temperature: 68±5° F. […], humidity: 50±:20%; light cycle: 12 hour light/12-hour dark; air changes: ten or more changes per hour with 100% HEPA filtered fresh air. Mice were given regular chow and water ad libitum and were not fasted overnight prior to compound administration.
CCl4 was dosed once to all animals, via intraperitoneal administration (IP) at a concentration of 15 μl (dissolved in 85 μl of corn or olive oil) and a dose volume of 100 μl per 30 g of mouse. Compound A was dosed to mice via oral administration (PO, by oral gavage), BID for 3 days at a concentration of 3 mg/mL (0.5% Methylcellulose) and a dose volume of […]. The single dose of CCl4 was administered two hours after the first dose of Compound A. The second dose of Compound A was administered 7 hours after the first dose. After three days of dosing, the animals were sacrificed and plasma and liver samples obtained for analysis.
Total RNA was extracted from isolated tissues by adding 1 ml Trizol and a stainless steel bead to each sample, and homogenized using a TissueLyser II at the highest speed (30 Hz) for 2 minutes at room temperature. After homogenization, 200 μl chloroform was added to each homogenized sample. The homogenate was vortexed briefly and left in an upright position at room temperature for 2-5 minutes until phase separation became visible by eye. Samples were centrifuged for 15 minutes at the highest speed (13,200 rpm) at 4° C. in an Eppendorf centrifuge.
After 15 minutes at the highest speed (13,200 rpm) centrifugation at 4° C., the supernatant of each sample (˜500 μl) was transferred into a new RNase-free tube. […]

rat animal model of NASH = conditions: cited from earlier work
OB/OB mice = conditions: cited from earlier work
human brown adipocytes = conditions: cited from earlier work
[3] = tested on: WT mice fed a high fat diet (HFD); conditions: cited from earlier work
primary white adipocytes = conditions: cited from earlier work
[4] = 8 weeks at 300 mg/kg/24 hours in food and intraperitoneally at 1 mg/kg

## NC(=O)[C@](O)(CNc1nc(-c2cc(-c3ccon3)n(Cc3ccccc3F)n2)ncc1F)C(F)(F)F [Compound C]
[1]; 1 mg/kg PO Q.D. 5 days
  Kp: 6
[1]; 10 mg/kg PO Q.D. 5 days
  Kp: 8

## NC(=O)[C@@](O)(CNc1nc(-c2cc(-c3ccon3)n(Cc3ccccc3F)n2)ncc1F)C(F)(F)F [Compound A]
[2]; 30 mg/kg dose
  relative reduction of the increased alpha-SMA mRNA expression levels: about 66%
[2]; PO BID for 3 days, single IP CCl4
  reduction of alpha-SMA expression compared with pirfenidone-treated samples: significantly more pronounced
[2]; PO BID for 3 days, single IP CCl4, vs vehicle (0.5% methyl cellulose)
  reduction of elevated levels of alpha-SMA expression compared to vehicle: statistically significant reduction

## Cc1ccc(=O)n(-c2ccccc2)c1 [pirfenidone, reference compound]
[2]; 400 mg/kg dose
  relative reduction of the increased alpha-SMA mRNA expression levels: about 20%

## CC(=O)N[C@@H](CSN=O)C(=O)O [SNAP, S-Nitroso-N-acetylcysteine]
Rat animal model of NASH
  onset of NASH: prevent the onset of NASH
OB/OB mice
  effect on NASH: prevent and reverse NASH

## Nc1nc(-c2nn(Cc3ccccc3F)c3ncccc23)nc(N)c1N1CCOCC1 [BAY 41-8543]
Human brown adipocytes
  differentiation of human brown adipocytes: enhances
[3]; [4]
  lipid uptake into BAT: enhances
  whole-body energy expenditure: increases
[3]; WT mice fed a HFD, obese phenotype, compared to mice fed regular chow
  triglyceride content in the liver: significant reduction
[3]; mouse, in vivo
  diabetic phenotype: improves
  diet-induced weight gain and liver steatosis: protects against
  weight loss in established obesity: induces weight loss
Primary white adipocytes
  browning of primary white adipocytes: induces ‘browning’; also recorded: induces “browning”
